Test system: PBMCs from naïve RA patients
Test: ROS TEST: ROS production of PHA-activated PBMCs exposed to MTX, fluorimetry
Format: cell-based, human
Conditions: PBMCs of naïve RA patients with clinical remission at 6 months of methotrexate (n=17) versus those without (n=8), E. coli stimulated, ANOVA p 0.0003
Description: Therefore, the decision was made to investigate a model of in vitro exposure of RA patients' cells to MTX and the measurement of its direct effect as a pharmacodynamic biomarker of response. […] Therefore, the hypothesis is that treatment of PBMCs with the drug methotrexate causes an increase in reactive oxygen species (ROS) production due to increased apoptosis in T lymphocytes in responder patients. […] Based on the above, in the present example the above two assays will be carried out using PBMCs obtained or isolated from RA patients. Briefly, first, a peripheral blood draw is performed from a rheumatoid arthritis patient who meets the inclusion criteria indicated below in the “Methodology” section, and peripheral blood mononuclear cells (PBMCs) are isolated by density gradient. These PBMCs are frozen and maintained in liquid nitrogen for a time period of at least two weeks. After this time, the PBMCs are thawed and incubated in a flat-bottomed p96 plate at 37° C. and 5% CO2 for 24 hours. The next day, phytohemagglutinin (PHA) and MTX are added to the corresponding wells and the plate is incubated for 48 hours. Finally, the probes corresponding to each test are added: • ROS test: ROS probe+E. coli • MONOCYTE test: resazurin Both tests were carried out on the same plate, read at Ex/Em 535/610 wavelengths, in a fluorescence reader.

For `CN(Cc1cnc2nc(N)nc(N)c2n1)c1ccc(C(=O)N[C@@H](CCC(=O)O)C(=O)O)cc1` [MTX, methotrexate], the “ROS production levels (fluorescence units) after exposure of PBMCs to MTX” value was “significantly increased”.

— patent US20250347692A1, “METHOD FOR DETERMINING THE RESPONSE TO METHOTREXATE (MTX) IN A HUMAN SUBJECT DIAGNOSED WITH RHEUMATOID ARTHRITIS” (BIOHOPE SCIENTIFIC SOLUTIONS FOR HUMAN HEALTH, S.L, priority 2022, published 2025)
